From patent US9340577B2, “HLA binding motifs and peptides and their uses” (priority 1992, dated 2016) come the findings set out here.

pIC50: −log10 of the molar value. No end group written: not given here. A value given as a limit tells only on which side of the number the result lay.

Holding throughout (test): biochemical
What all share (assay type): binding

The target of test [1] is A*6801 (Homo sapiens, UniProt P04439, A269V/D185E/E176V/E277Q/E87N/F33Y/G231S/I121M/I166T/I218V/L180W/L300P/L318F/N151K/P208A/P217A/Q86R/R169H/T345S).
For test [2], the target named is A31 (A*3101) (Homo sapiens, UniProt P04439, A270S/D185E/E176V/E277Q/F33T/G231S/G80R/H175R/I121M/I218V/I322F/K168Q/L300P/L318F/M331R/P217A/Q94H/R138Q/T323A/T345S/T97I/V358M).
The target of test [3] is A*3301 (Homo sapiens, UniProt P04439, A270S/D185E/E176V/E277Q/E87N/F33T/G231S/H175R/I121M/I218V/I322F/K168Q/K210R/L300P/L318F/M331R/P217A/Q86R/Q94H/R138Q/T323A/T345S/T97I/V358M/Y195H).
The target of test [4] is HLA-A11 (A*1101) (Homo sapiens, UniProt P04439, A114D/D185E/E176A/F33Y/L180Q/S129P/T187R).
Test [5] concerns the target HLA-A*0201 (HLA-A2.1) (Homo sapiens, UniProt P04439, D140Y/D185E/D98H/E176V/E277Q/G131W/G231S/I119V/I121R/I166T/I218V/L300P/L318F/N151K/N90K/P208A/P217A/Q86G/Q94H/R138H/R169H/T345S).

Broadly, the pIC50 is the negative decadic logarithm of the IC50, by convention in mol/L. A lower pIC50 goes with a high IC50. Take KQIVMFLRY [Peptide 88.0330]: the pIC50 in test [1] was 5.65; in test [2], 5.36; in test [3], 5.19; in test [4], 7.01.

Consider TVTYSPALNK [Peptide 1556.40], for which the negative logarithm of the IC50 (pIC50) in test [1] is 6.78; in test [2], under 4.70; in test [3] it was under 4.70.

With MTLESILRR [Peptide 9012.0215], the pIC50 in test [1] is 7.82; in test [2], 6.61; in test [3] it was 7.03; in test [4] it was 7.85.

The compound KVGPGGYPRRK [Peptide 73.0336] gave a pIC50 in test [3] of under 4.70.

Take WFYVQAIVDK [Peptide 88.0140]: the pIC50 in test [1] was 4.71; in test [2], under 4.70; in test [3] it was under 4.70; in test [4], 4.89.

As to WTIVYIEYR [Peptide 9017.0117], the pIC50 in test [1] is 7.77; in test [3], 7.04.

On to MLIEPPKLR [Peptide 88.0366], for which the negative-log IC50 (pIC50) is 7.92 in test [1], 5.50 in test [2], 6.82 in test [3] and 5.54 in test [4].

Take KTVRLIKFLY [Peptide 9017.0197]: the pIC50 was 4.92 in test [1], 5.89 in test [2], 5.18 in test [3] and 6.63 in test [4].

Turning to VQFKSECEK [Peptide 88.0419], the pIC50 is under 4.70 in test [1], 5.57 in test [2], 5.32 in test [3] and 7.70 in test [4].

TFPHAFPFDK [Peptide 88.0176]: the pIC50 was 6.70 in test [1], 5.30 in test [2] and under 4.70 in test [3].

As for VLMWKFDSR [Peptide 9017.0066], the pIC50 in test [1] is 6.29; in test [2], 7.14; in test [3], 7.20; in test [4], 6.05.

ESKKKVESK [Peptide 9017.0082]: the pIC50 in test [1] was 6.60; in test [2], under 4.70; in test [3], under 4.70; in test [4], under 4.70.

Take NVCVSWKYK [Peptide 88.0383]: the pIC50 was 6.20 in test [1], 6.58 in test [2], 5.61 in test [3] and 6.03 in test [4].

In the case of ITIEKLLEK [Peptide 1587.31], the values for the negative-log IC50 (pIC50) in test [1], in test [3] and in test [4] were 7.80, 4.96 and 7.85, respectively.

For the compound AVDLSFFLK [Peptide 73.0184], the negative logarithm of the IC50 (pIC50) in test [3] was under 4.70.

In test [3], KTLGISYGRK [Peptide 66.0073] had a pIC50 of under 4.70.

Regarding RQLKETELRK [Peptide 9012.0249], the figures for the negative-log IC50 (pIC50) in test [1], in test [2] and in test [3] were under 4.70, under 4.70 and 4.90, respectively.

As for GLVFGILIKR [Peptide 9012.0244], the pIC50 in test [2] was 5.68; in test [3], 5.58; in test [4] it was 6.31.

Take AQVLHVLKR [Peptide 88.0335]: the negative logarithm of the IC50 (pIC50) in test [1] was 5.18; in test [3] it was 7.19; in test [4], 7.10.

Consider HLVPWDQLFR [Peptide 9012.0236], for which the pIC50 was 7.68 in test [1] and 6.51 in test [2].

Take AQVLHLLKR [Peptide 88.0364]: the negative-log IC50 (pIC50) in test [1] is 4.71; in test [2] it was 7.01; in test [3], 5.42.

In the case of EFVSFLSALK [Peptide 1587.36], the negative logarithm of the IC50 (pIC50) in test [1] was 7.66; in test [3] it was 7.77.

On to AVHLCTETSK [Peptide 88.0230], for which the values for the negative-log IC50 (pIC50) in test [1], in test [3] and in test [4] were 4.98, under 4.70 and 7.06, respectively.

RTEVYQFAFK [Peptide 78.0062]: the pIC50 in test [1] is 5.48; in test [2], 5.77; in test [3], 5.04.

The compound “AVDLYHFLK [Peptide 940-06, reference compound]” gave an active receptor in test [4] of 10%.

Consider LQHASTSTPK [Peptide 88.0224], for which the negative-log IC50 (pIC50) in test [2] is 5.23; in test [3], under 4.70; in test [4], 7.70.

Regarding QQQMFLGTVK [Peptide 88.0219], the negative-log IC50 (pIC50) in test [1] is 5.83; in test [3], under 4.70; in test [4], 7.89.

As to GTGISYGRK [Peptide 66.0062], the pIC50 in test [2] and in test [3] was under 4.70 throughout.

Consider `CC(C)C[C@H](NC(=O)[C@H](CCCNC(=N)N)NC(=O)[C@H](Cc1ccccc1)NC(=O)CNC(=O)[C@@H](N)Cc1ccc(O)cc1)C(=O)NCC(=O)N[C@@H](Cc1ccccc1)C(=O)N[C@@H](CC(C)C)C(=O)N[C@@H](Cc1c[nH]cn1)C(=O)O` [Peptide 1556.26], for which the pIC50 is 5.49 in test [2], 5.00 in test [3] and 7.72 in test [4].

Consider SQIQYWQLIR [Peptide 88.0199], for which the figures for the pIC50 in test [2], in test [3] and in test [4] were 6.66, 5.12 and 7.08, respectively.

For the compound AACWRSRRK [Peptide 88.0260], the pIC50 in test [3] is under 4.70.

On to IVKETELRK [Peptide 9012.0209], for which the pIC50 in test [1] was 5.76; in test [2], under 4.70; in test [3], under 4.70.

In turn, KISEYRHYNK [Peptide 88.0110] gave a pIC50 in test [3] of under 4.70.

For TVYAEPPR [Peptide 1556.10], the figures for the negative-log IC50 (pIC50) in test [1], in test [2] and in test [3] were 7.68, 5.08 and 4.93, respectively.

FVVYRDSIPK [Peptide 88.0026]: the pIC50 in test [1] was 8.00.

In the case of IVIKRRQQK [Peptide 9012.0206], the pIC50 in test [1] was 5.48; in test [2], 6.15; in test [3] it was 5.04.

Regarding KVGSLQYLK [Peptide 66.0057], the pIC50 in test [3] was under 4.70.

Regarding RQRKIDWLIK [Peptide 9017.0247], the pIC50 is under 4.70 in test [1], 7.02 in test [2] and under 4.70 in test [3].

KAGPGGYPRK [Peptide 73.0334] showed a negative-log IC50 (pIC50) in test [3] of under 4.70.

For the compound LVYRDDFPK [Peptide 88.0280], the pIC50 in test [1] is 6.96.

On to TTYAEPPK [Peptide 1556.11], for which the negative-log IC50 (pIC50) in test [1] is 6.49; in test [2], under 4.70; in test [3], under 4.70.

Regarding FAFADLTVVY [Peptide 78.0115], the negative logarithm of the IC50 (pIC50) in test [2] and in test [3] was under 4.70 in each case.

With IVYRDNNPY [Peptide 78.0292], the pIC50 was under 4.70 in test [2], under 4.70 in test [3] and 7.74 in test [4].

As for MSFLTALKR [Peptide 1587.11], the pIC50 in test [1] was 8.62; in test [2], 7.31; in test [4], 7.59.

In the case of KQGAMLAVFK [Peptide 88.0142], the values for the negative-log IC50 (pIC50) in test [1], in test [2] and in test [3] were 6.63, 6.28 and under 4.70, respectively.

In the case of KTLGISYGRKK [Peptide 66.0090], the pIC50 in test [3] is under 4.70.

Turning to QQLLRREVY [Peptide E6-42], the “binding class for HLA-A11.2” value in test [4] is “weak affinity”.

Turning to ILWKDIFHR [Peptide 9012.0201], the results for the pIC50 in test [1], in test [2] and in test [3] were 6.63, 8.19 and 8.32, respectively.

For the compound STSCILESL, the “binding to HLA-A2.1 (column 3; no allele head shown for these rows)” value in test [5] stood at 0.0002.

Regarding MSSCGVQGP, in test [5], the A2.1 was under 0.0002.

For FVSFLSALK [Peptide 1587.37], the negative-log IC50 (pIC50) in test [1] is 7.89; in test [2], 5.36; in test [4], 8.06.

As for GLYDGREHTV [Peptide 1586.06], in test [5], the negative-log IC50 (pIC50) was 6.84.

In turn, GKASESLQL came in with an A2.1 in test [5] of under 0.0002.

Regarding DLESEFQAAISRKMV, the “binding to HLA-A2.1 (column 3; no allele head shown for these rows)” value in test [5] is 0.

As to IMPKTGFL, the A2.1 in test [5] is recorded as 0.0001.

AVITKKVAD returned an A2.1 in test [5] of under 0.0002.

Take VQLDIQSTK [Peptide 78.0301]: the negative-log IC50 (pIC50) in test [1] is under 4.70; in test [3] it was under 4.70; in test [4], 6.67.

Turning to ATVGIJIGV [Peptide 1345.02], the “A*0201” value in test [5] worked out at 0.1595.

For LQLVFGIDV, in test [5], the “binding to HLA-A2.1 (column 3; no allele head shown for these rows)” value stood at 0.0004.

Consider KQSRAAKRR [Peptide 88.0325], for which the results for the pIC50 in test [1], in test [3] and in test [4] were 5.95, 6.29 and 4.73, respectively.

Consider LALTALIKPK [Peptide 9017.0227], for which the pIC50 is 5.46 in test [1], under 4.70 in test [3] and 7.47 in test [4].

On to GMCCPDLSPV [Peptide 41.0157], for which the “A*0201” value in test [5] came out at 0.0950.

As for LVGFLLLKYRA, in test [5], the “binding to HLA-A2.1 (column 3; no allele head shown for these rows)” value is given as 0.0004.

Take CQLAKTCPV [Peptide 1324.07]: in test [5], the “A*0201” value stood at 0.0240.

In turn, HAPEEEIWE came in with an A2.1 in test [5] of under 0.0002.

For CKPEEALEA, in test [5], the A2.1 is under 0.0002.

For the compound RKLLTQDLV, the “binding to HLA-A2.1 (column 3; no allele head shown for these rows)” value in test [5] is reported as 0.

RAVITKKVA: the “binding to HLA-A2.1 (column 3; no allele head shown for these rows)” value in test [5] was found to be 0.

GLLGDNQI returned an A2.1 in test [5] of 0.

On to VLVTCLGLSYDGL, for which, in test [5], the “binding to HLA-A2.1 (column 3; no allele head shown for these rows)” value came to 0.0017.

On to SLSAYIIRV [Peptide 1577.43], for which the negative logarithm of the IC50 (pIC50) in test [5] is 7.40.
